Patent US10213409B2, “Substituted benzofurans, benzothiophenes, benzoselenophenes and indoles and their use as tubulin polymerisation inhibitors” (Bionomics Limited, priority 2006, dated 2019)

Columns and labels:
[1] = system: Human umbilical vein endothelial cells (HUVECs), tumour type activated (Tum); assay: Proliferation Assay - Activated Endothelium (MTT); assay type: cell-based; conditions: for IC50: Homo sapiens, HUVEC, tumour type activated endothelial cells; for potency towards activated (tumour) versus quiescent (normal) endothelial cells: comparison of activated and quiescent HUVEC assays, FIGS. 1 and 2, Table 1
Method: Proliferation Assay—Activated Endothelium:
(§1) Cells were cultured overnight at 37° C. 5% CO2. Medium was subsequently replaced with fresh medium including the compound or negative control. Cells were cultured for a period of 48 hrs. An MTT assay was performed to measure changes in cell numbers. Briefly, 20 μl of MTT reagent was added to cells containing 100 μl of EGM2 and incubated at 37° C. for 2 hours.

[2] = system: Human umbilical vein endothelial cells (HUVECs), normal quiescent type (Norm); assay: Proliferation Assay - Quiescent Endothelium (MTT); assay type: cell-based; conditions: HUVEC
Method: Proliferation Assay—Quiescent Endothelium:
as §1, with “EBM2+0.5% FBS” for “EGM2”

[3] = system: MDA-MB-231; assay: Growth inhibition, Sulforhodamine B (SRB) or Systmex cell counting (CC) assay, MDA-MB-231; assay type: cell-based; conditions: Homo sapiens; MDA-MB-231 (footnote b); concentration required to inhibit net cell growth by 50%; read-out: Cancer cell line IC50
[4] = system: MCF-7; assay: Growth inhibition, Sulforhodamine B (SRB) or Systmex cell counting (CC) assay, MCF-7; assay type: cell-based; conditions: Homo sapiens, MCF7, concentration required to inhibit net cell growth by 50%, read-out: Cancer cell line IC50
[5] = system: tubulin; assay: Tubulin Polymerisation Assay (fluorescent-based kit); assay type: biochemical; conditions: compared with CA4 (1), FIG. 3
Method: Tubulin Polymerisation Assay:
Tubulin polymerisation inhibition assays were performed using a fluorescent-based detection kit (#BK011, Cytoskeleton) according to the instructions of the manufacturer. The test compound was added to a 2 mg/ml tubulin solution containing 20% glycerol and 1 mM GTP in 1× Buffer 1 (Buffer 1: 80 mM Piperazine-N,N′-bis[2-ethanesulfonic acid] sequisodium salt; 2 mM magnesium chloride; 0.5 mM Ethylene glycol-bis(b-amino-ethyl ether)N,N,N′,N′-tetra-acetic acid, pH 6.9, 10 uM fluorescent reporter). Fluorescence was measured over a period of 42 minutes at 1 minute intervals. Increased fluorescence indicates increase in tubulin polymerisation. There is a ten-fold increase in the affinity of the fluorescent reporter for polymerised tubulin compared to monomeric tubulin subunits. The result is a fluorescence signal that closely follows tubulin polymerisation.

[6] = system: MDA-MB-231 solid orthotopic tumors; assay: Tumor Growth Inhibition; assay type: in vivo, Balb/c nu/nu mice; conditions: 40 mg/kg i.v., two cycles, 72 days; vs vehicle, significant from day 4 (p<0.001) to Day 70, FIG. 5
Method: Balb/c nu/nu mice bearing MDA-MB-231 solid orthotopic tumors were treated with compound Example 29 at 40 mg/kg. Animals were i.v. dosed with a total of two cycles of Example 29 treatment. Each cycle was dosing on […] followed by a three week no-dosing period. Tumor growth represented as a ratio to initial tumor volume is shown over a total of 72-days.
Tumor growth as well as animal health were monitored for up to 72 days post-day 1 of treatment. […] Significant differences in tumor growth between Example 29 treated (n=64) and vehicle treated (n=20) animals were observed as early as day 4 (p<0.001; unpaired t-test; Prism® analysis) through to Day 70.

[7] = system: MDA MB 231 orthotopic xenografts; assay: Vascular Disruption Assay (tumor perfusion, Hoechst 33342); assay type: in vivo, BALB/c-nu/nu mice; conditions: compared with CA4 / CA4P, FIG. 4; i.v., 24 hours after injection
From the text: Vascular Disruption Assay:
Female athymic BALB/c-nu/nu mice (nude mice) were used for this study. Mice were between 6-8 weeks old and were purchased from the Animal Resource Centre, Perth, Western Australia and allowed to acclimatize for a couple of days. All the animals were housed under pathogen-free conditions and cared for in accordance with Flinders University of South Australia and NH&MRC guidelines and the Australian Code of Practice for the care and use of animals for scientific purposes. The human breast cancer MDA MB 231 was grown as orthotopic xenografts in the mammary fat pad of nude mice. Each mouse was injected with 2×10^6 cells in 50 μl Dulbecco's PBS subcutaneously just above the mammary fat pad, below the right forward limb. Tumors were selected for treatment when they reached a diameter of […] (3 weeks after implantation). The test compound (Example 29) was dissolved in saline solution and injected intravenously at concentrations ranging from 150 mg/kg-1 mg/kg in a total volume of 400 ul. […] Non-tumor regions were mapped on Hoechst 33342 composite images and excluded from the quantitation analysis. Quantitation was performed by measuring the pixel area of Hoechst 33342 staining and the total pixel area of the tumor region. Perfusion was expressed as a percentage of Hoechst 33342 stained area to total tumor area (see FIG. 4).

SMILES | IC50 [3] [nM] | IC50 [4] [nM] | IC50 [1] [nM] | potency towards activated (tumour) versus quiescent (normal) endothelial cells [1] | IC50 [2] [nM] | potency in inhibiting tubulin polymerisation [5] | tumor growth (ratio to initial tumor volume) [6] | potency at shutting-down tumour vasculature (reduction in tumour perfusion) [7]
COc1cc(C(=O)c2coc3c(N)c(OC)ccc23)cc(OC)c1OC [Example 2, (7-Amino-6-methoxybenzofuran-3-yl)(3,4,5-trimethoxyphenyl)methanone] | 1 to 10 | – | 1 to 10 | – | 1 to 10 | – | – | –
COc1cc(C(=O)c2c(NCCN(C)C)oc3c(O)c(OC)ccc23)cc(OC)c1OC [Example 21] | 10 to 100 | – | 10 to 100 | – | 10 to 100 | – | – | –
COc1cc(C(=O)c2c(Nc3cccnc3)oc3c(O)c(OC)ccc23)cc(OC)c1OC [Example 25, [7-Hydroxy-6-methoxy-2-(pyridin-3-ylamino)-benzofuran-3-yl]-(3,4,5-trimethoxy-phenyl)-methanone] | 1 to 10 | – | 1 to 10 | – | 1 to 10 | – | – | –
COc1cc(C(=O)c2c(C)oc3c(OP(=O)([O-])[O-])c(OC)ccc23)cc(OC)c1OC.[Na+].[Na+] [Example 29, Disodium 6-methoxy-2-methyl-3-(3,4,5-trimethoxybenzoyl)benzofuran-7-yl phosphate] | – | – | – | – | – | – | tumor growth inhibition | significantly greater potency than CA4 (1)

Second part, led by results:

IC50 [3] [nM] | IC50 [4] [nM] | SMILES | IC50 [1] [nM] | potency towards activated (tumour) versus quiescent (normal) endothelial cells [1] | IC50 [2] [nM] | potency in inhibiting tubulin polymerisation [5] | tumor growth (ratio to initial tumor volume) [6] | potency at shutting-down tumour vasculature (reduction in tumour perfusion) [7]
1 to 10 | – | COc1cc(C(=O)c2c(/C=C/C(N)=O)oc3c(O)c(OC)ccc23)cc(OC)c1OC [Example 15, (E)-3-[7-Hydroxy-6-methoxy-3-(3,4,5-trimethoxy-benzoyl)benzofuran-2-yl]-acrylamide] | 1 to 10 | higher potency towards tumour endothelial cells (activated) over normal endothelial cells (quiescent) | 1 to 10 | – | – | –
1 to 10 | – | COc1cc(C(=O)c2c(N(C)C)oc3c(O)c(OC)ccc23)cc(OC)c1OC [Example 22, (2-N,N′-Dimethylamino-7-hydroxy-6-methoxy-benzofuran-3-yl)-(3,4,5-trimethoxy-phenyl)-methanone] | 1 to 10 | – | 1 to 10 | – | – | –
1 to 10 | – | COc1cc(C(=O)c2c(NCCO)oc3c(O)c(OC)ccc23)cc(OC)c1OC [Example 20, [7-Hydroxy-2-(2-hydroxy-ethylamino)-6-methoxy-benzofuran-3-yl]-(3,4,5-trimethoxy-phenyl)methanone] | 1 to 10 | – | 1 to 10 | – | – | –
– | 2 | COc1cc(C(=O)c2c(C)oc3c(O)c(OC)ccc23)cc(OC)c1OC [Example 11, 2-Methyl-7-hydroxy-3-(3,4,5-trimethoxybenzoyl)-6-methoxybenzofuran] | 0.1 to 1 | higher potency towards tumour endothelial cells (activated) over normal endothelial cells (quiescent) | 10 to 100 | significantly greater potency than CA4 (1) | – | –
